# Data reported in the supplement of paper PMC10307832.
# Columns and labels:
# Assay in all cases: relative viability (nuclei count vs DMSO), 5 days (fraction); higher = more cells survive
# [1] = compound: CN(C)C(=N)NC(=N)N [Metformin] + Nc1nc2[nH]cc(CCc3ccc(C(=O)N[C@@H](CCC(=O)O)C(=O)O)cc3)c2c(=O)[nH]1 [Pemetrexed] (partner 0.2 µM)
# Procedure, shortened: (§1)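 Lung cancer cell lines in 1536-well plates were dosed by pin tool the day after seeding, either with one drug alone or with a fixed anchor-drug dose plus five library-drug doses (not always all listed) in √10 steps. After 5 days, cells were fixed and their nuclei stained in one step (final 0.05% Triton X-100, 1% formaldehyde, 1 ug/ml Hoechst), then counted on 4× images. Relative viability is the nuclei count in treated wells divided by that in vehicle wells. Values are medians of duplicate plates.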
# [2] = compound: N#CC1(c2ccc(NC(=O)c3cccnc3NCc3ccncc3)cc2)CCCC1 [Apatinib] + COc1cccc2cc(-c3nc([C@H]4CC[C@H](C(=O)O)CC4)n4ncnc(N)c34)[nH]c12 [OSI-027] (partner 0.5 µM)
# Procedure, shortened: as §1
# [3] = compound: N#CC1(c2ccc(NC(=O)c3cccnc3NCc3ccncc3)cc2)CCCC1 [Apatinib] + Nc1ncn([C@H]2C[C@H](O)[C@@H](CO)O2)c(=O)n1 [Decitabine] (partner 2 µM)
# Procedure, shortened: as §1
# [4] = compound: N#CC1(c2ccc(NC(=O)c3cccnc3NCc3ccncc3)cc2)CCCC1 [Apatinib] + O=C(c1cc(Cc2n[nH]c(=O)c3ccccc23)ccc1F)N1CCN(C(=O)C2CC2)CC1 [Olaparib] (partner 8 µM)
# Procedure, shortened: as §1
Cell Line,relative viability ([1]; first compound 10 µM),relative viability ([1]; first compound 31.62 µM),relative viability ([1]; first compound 100 µM),relative viability ([1]; first compound 316.23 µM),relative viability ([1]; first compound 1000 µM),relative viability ([2]; first compound 0.08 µM),relative viability ([2]; first compound 0.253 µM),relative viability ([2]; first compound 0.8 µM),relative viability ([2]; first compound 2.53 µM),relative viability ([2]; first compound 8 µM),relative viability ([3]; first compound 0.08 µM),relative viability ([3]; first compound 0.253 µM),relative viability ([3]; first compound 0.8 µM),relative viability ([3]; first compound 2.53 µM),relative viability ([3]; first compound 8 µM),relative viability ([4]; first compound 0.08 µM),relative viability ([4]; first compound 0.253 µM),relative viability ([4]; first compound 0.8 µM),relative viability ([4]; first compound 2.53 µM),relative viability ([4]; first compound 8 µM)
HCC-366,0.13,0.21,0.139,0.162,0.158,1.06,0.88,0.815,0.744,0.494,0.395,0.365,0.309,0.353,0.432,0.435,0.372,0.249,0.292,0.245
EMC-BAC-2,0.429,0.488,0.452,0.492,0.48,0.413,0.389,0.357,0.338,0.291,–,0.967,0.925,0.954,1.01,0.57,0.507,0.44,0.363,0.319
NCI-H647,0.127,0.137,0.16,0.146,0.148,0.77,0.619,0.576,0.593,0.528,0.376,0.413,0.478,0.414,0.583,0.65,0.794,0.508,0.418,0.305
NCI-H1944,0.505,0.75,0.625,0.687,0.576,0.419,0.387,0.361,0.378,0.405,0.41,0.466,0.401,0.421,0.504,0.407,0.378,0.37,0.346,0.319
NCI-H1395,1.05,1.1,0.998,0.624,0.488,0.614,0.701,0.662,0.693,0.639,0.747,0.808,0.781,0.744,0.859,0.485,0.459,0.488,0.452,0.395
SK-MES-1,0.532,0.721,0.805,0.662,0.708,0.589,0.585,0.6,0.496,0.37,0.404,0.36,0.488,0.975,0.903,0.858,0.665,0.627,0.592,0.411
EPLC-272H,0.467,0.345,0.429,0.394,0.39,0.308,–,0.268,0.246,0.247,0.395,0.324,0.405,0.307,0.342,0.759,0.806,0.822,0.605,0.604
NCI-H2087,0.622,0.702,0.615,0.536,0.614,0.607,0.458,0.468,0.492,0.426,0.272,0.285,0.331,0.239,0.236,0.633,0.653,0.541,0.645,0.493
